Measurements from paper PMC3104405 (Biochemical and biophysical research communications, 2011).
Several values for one entry are separate records, joined by “and”; a condition that tells them apart may be missing. Identical values can stand only once. Like-named read-outs stand apart in the source and are kept apart here.

Columns and labels:
[1] = target: T1, anthrax lethal factor (LF) (Bacillus anthracis, UniProt P15917)
[2] = target: T1, anthrax lethal factor (LF); conditions: for Km / kcat / kcat/Km: pH 7.4

T1 sequence (P15917 34-809 limits assumed): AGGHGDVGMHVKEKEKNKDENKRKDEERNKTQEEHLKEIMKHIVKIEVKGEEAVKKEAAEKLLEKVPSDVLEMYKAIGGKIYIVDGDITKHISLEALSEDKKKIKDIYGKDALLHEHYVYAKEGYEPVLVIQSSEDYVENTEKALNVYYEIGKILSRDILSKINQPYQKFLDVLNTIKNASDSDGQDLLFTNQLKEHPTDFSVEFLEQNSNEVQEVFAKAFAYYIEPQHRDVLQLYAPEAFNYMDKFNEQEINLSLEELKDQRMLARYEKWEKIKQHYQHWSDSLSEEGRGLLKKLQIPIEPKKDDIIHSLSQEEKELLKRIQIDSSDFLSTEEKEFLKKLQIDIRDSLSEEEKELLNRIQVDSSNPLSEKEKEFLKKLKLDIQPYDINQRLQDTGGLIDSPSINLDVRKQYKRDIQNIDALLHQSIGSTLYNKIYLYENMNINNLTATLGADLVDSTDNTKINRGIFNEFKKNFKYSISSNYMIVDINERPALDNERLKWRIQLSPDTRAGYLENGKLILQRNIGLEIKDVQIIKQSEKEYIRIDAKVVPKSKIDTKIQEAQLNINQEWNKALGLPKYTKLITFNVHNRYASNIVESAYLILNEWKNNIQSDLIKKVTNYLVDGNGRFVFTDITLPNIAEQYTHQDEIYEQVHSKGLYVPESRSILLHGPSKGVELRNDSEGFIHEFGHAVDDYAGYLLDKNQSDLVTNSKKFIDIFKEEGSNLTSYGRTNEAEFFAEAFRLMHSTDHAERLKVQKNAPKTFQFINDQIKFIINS

| Substance | kcat/Km [1] | Km [2] | kcat [2] | kcat/Km [2] | fold higher kcat/Km than substrate No. 2 [2] |
| --- | --- | --- | --- | --- | --- |
| Mca-KKPTP-IQLN-Dnp [Substrate 1] | 1.5 min^−1 M^−1 and 1.5 ^a min^−1 M^−1 |  |  |  |  |
| Mca-KKVYP-YPMEK-Dnp [Substrate 2] |  | 58.5 µM | 74.17 s⁻¹ | 1.27 M⁻¹ s⁻¹ |  |
| Mca-KKWLM-YPLEK-Dnp [Substrate 3] |  | 16.9 µM | 39.83 s⁻¹ | 2.33 M⁻¹ s⁻¹ | about two-fold |
